From US20160206604A1, “FORMULATIONS COMPRISING WETTING AGENTS AND COMPOUNDS FOR THE MODULATION OF HEMOGLOBIN (S)” (GLOBAL BLOOD THERAPEUTICS, INC., priority 2013, published 2016)
Values joined by “and” are separate entries in the source; they are usually repeats but may differ in a detail not shown here. Equal values may be shown once. Read-outs that look alike come from different tables or passages of the source.

How the values were obtained:
[1] = Pharmacokinetics of compound 12 suspension formulation (methylcellulose/sodium dodecyl sulfate), oral, rats; assay type: in vivo, Sprague-Dawley rats
Procedure: (§1) Blood samples were collected at different time points. Blood was anti-coagulated by 3.2% TSC (trisodium citrate) and a portion was separated into plasma fraction by centrifugation and removal of blood cells. Plasma and lysed blood samples were analyzed for drug concentration using LC-MS/MS. PK parameters were calculated by non compartmental analysis of the concentration-time profiles using WinNonLin software (Pharsight, Mountain View, Calif.). Apparent elimination half-life (t1/2) values were calculated as ln(2)/k. Area under the concentration-time curve (AUC) values were estimated using the linear trapezoidal method. AUClast values were calculated from the dosing time to the last measurable concentration. AUCinf values were calculated as the sum of the corresponding AUClast and the ratio of the last detectable concentration divided by k. Plasma clearance (Cl) is calculated from Dose/AUCinf. Volume of distribution at steady state (Vss) is calculated from Mean Residence Timeinf×Clss. Maximum concentration (Cmax) and time to Cmax (Tmax) was recorded as observed. The blood/plasma partitioning ratio was calculated at each experimental time point.
A suspension of Compound 12 was prepared by triturating 250 mg of compound 12 in a mortar with 2 mL of 0.5% methylcellulose in water and 200 μL of 0.5% sodium dodecyl sulfate. After approximately 5 minutes, the suspension was homogeneous. The volume of the mixture was adjusted to 12.5 mL with 0.5% methylcellulose to obtain a final concentration of 20 mg/mL. To prepare a 10 mg/mL suspension of compound 12, the 20 mg/mL suspension was diluted two-fold with 0.5% methylcellulose.
Pharmacokinetics of compound 12 following an oral administration of compound 12 suspension at 50 mg/kg or 100 mg/kg were studied in male Sprague-Dawley rats (n=3/group) using the method described in Example 1. Maximum blood concentration of compound 12 was achieved within 6 hours. The maximum concentrations at 50 mg/kg and 100 mg/kg compound 12 were 281 μg/mL (903 μM) and 327 μg/mL (1050 μM), respectively.

[2] = target: T1, HbS (Homo sapiens, UniProt P68871+P69905, E7V); test: Polymerization assay; assay type: biochemical; design: HbS is purified by the CRO VIRUSYS, from blood obtained from homozygous sickle cell patients; tissue VIRUSYS (CRO that did the purification); host or cells: blood of homozygous sickle cell patients; conditions: 75 μM compound; for Polymerization (75 μM)/(% DT): 50 μM purified HbS, percent delay time
Procedure: Polymerization assays are carried out in vitro using purified HBS exchanged into 1.8 M potassium phosphate buffer at pH 7.4. Using a slightly modified protocol (Antonini and Brunori, 1971), HbS is purified by the CRO VIRUSYS, from blood obtained from homozygous sickle cell patients through the Hemoglobinopathy Center at Children's Hospital Oakland Research Institute (CHORI) with Institutional Review Board approval. Compounds are prepared in 100% DMSO and a desired amount is added to 50 μM of purified HbS at a final DMSO concentration of 0.3%. Final potassium phosphate concentration is adjusted to 1.8 M using a combination of 2.5 M potassium phosphate stock solution and water at pH 7.4. The reaction mixture is incubated for an hour at 37° C. and then transferred into a 24-well plate for deoxygenation in a glove box containing 99.5% nitrogen and 0.5% oxygen. The 24-well plate is not covered and incubated at 4° C. on a plate cooler inside the glove box for one and a half hours. Fifty μL of the reaction mixture is transferred into a 96-well plate and the absorbance at 700 nm is measured every minute for one hour at 37° C. in a plate reader located inside the glove box. A plot of the absorbance against time is fitted using a Boltzman sigmoidal fit and the delay time (from zero to time at half Vmax) is measured. To compare and rank compounds, delay times are expressed as percent delay (% DT), which is defined as the difference in delay times for HbS/compound and HbS alone multiplied by 100 and divided by the delay time for HbS alone.
Results: Compounds listed below have been tested in the polymerization assay. Activity ranges are defined by the number of dagger (†) symbols indicated. † denotes activity ≧40% but ≦80%; †† denotes activity >80% but ≦120%; ††† denotes activity >120% but ≦140%; †††† denotes activity >[…].

[3] = target: hemoglobin (Homo sapiens, UniProt P68871+P69905); test: In vitro system measuring binding to hemoglobin and human serum albumin; conditions: both proteins present in their respective physiologic ratio
Procedure: However, when the red blood cell compartment is considered, compound 12 unexpectedly partitions into blood to a far greater extent than compound 22 or compound 23. […] When the red blood cell/plasma ratio was measured at the peak concentration, compound 12 partitioned at a ratio of 70 to 1 into the erythrocytes attesting to its preferential partition into the compartment which contains the drug target hemoglobin. Supportive data was reported in an in vitro system measuring binding of compound 12 to hemoglobin and human serum albumin.

[4] = Pharmacokinetic (PK) properties in rats, oral or intravenous dosing; assay type: in vivo, Rats (Sprague-Dawley); conditions: for blood plasma ratio: male, Sprague-Dawley, rat, whole blood and plasma, po, 10 mg/kg, dosed orally
Procedure: This experiment was established and used in order to assess the pharmacokinetic (PK) properties of the compounds.
Sample collection and data analysis: Rats (Sprague-Dawley, male, 8-12 weeks old) were dosed with one of three compounds corresponding to compound 12, compound 22 or compound 23. The rats received oral (10 mg/kg) or intravenous (1 mg/kg) doses of the compound. Rats were fasted overnight before the experiments and provided with food after the 2 hour sampling time point.
as §1

[5] = target: T1, HbS; test: Reverse Hemox assay (oxygen equilibrium curves of whole blood); assay type: cell-based; design: Oxygen Equilibrium Curves (OEC) of whole blood before and after treatment; from tissue; host or cells: whole blood (red blood cells) of homozygous sickle cell patients; conditions: 1 mM compound, sickle cell whole blood; for Reverse Hemox (1 mM)/(delta p50%): hematocrit 20%, 1 hour 37° C.
Procedure: Oxygen Equilibrium Curves (OEC) of whole blood before and after treatment with different concentrations of compounds 12, 22 and 23 were performed as follows using a HEMOX analyzer (TCS Scientific, New Hope, Pa.). Blood samples from homozygous sickle cell patients were obtained though the Hemoglobinopathy Center at Children's Hospital Oakland Research Institute (CHORI) with Institutional Review Board approval. The hematocrit was adjusted to 20% using autologous plasma and the blood samples were incubated for 1 hour at 37° C. in absence or presence of compounds. 100 μl of these samples were added to 5 mL of Hemox buffer (30 mM TES, 130 mM NaCl, 5 mM KCl, pH=7.4) at 37° C. and then transferred to the Hemox sample chamber. The samples were saturated with oxygen by flushing with compressed air for 10 minutes. The samples were then flushed with pure nitrogen and the respective absorbances of oxy- and deoxy-Hb were recorded as a function of the solution pO2. The oxygen equilibrium data were then fitted to the Hill Model to obtain values for p50. The deoxygenation curves for both whole blood alone (control) and whole blood in the presence of the compound were collected with the TCS software.
Results: Table 3 below lists the delta p50% values where “+” indicates a delta p50% of between 0 and 29, “++” indicates a delta p50% of between 30 and 50, and “+++” indicates a delta p50% of 50 or greater.

[6] = target: T2, HbS/A (Homo sapiens, UniProt P68871+P69905, E7V); test: R/T assay (relaxed-to-tense transition assay); assay type: biochemical; conditions: for R-T (9 μM)/(delta R), class / R-T (9 μM)/(delta R): 9 μM compound; for R-T (9 μM)/(delta R) / R-T (10 μM)/(delta R): 3 μM HbS/A; for R-T (10 μM)/(delta R), class / R-T (10 μM)/(delta R): 10 μM compound
T2 construct: A mixture of HbS/A was purified from blood obtained from homozygous sickle cell patients; from tissue; host or cells: blood of homozygous sickle cell patients; hemoglobin purified from it
Procedure: This ability can be expressed as a “delta R” value (i.e., the change in the time-period of the R state after hemoglobin is treated with a compound, as compared to the period without treatment with the compound). Delta R is the % R to remaining after the compounds treatment compared with no treatment (e.g. if R % without treatment is 8% while with treatment with a target compound is 48% R at 30 μM, then % R is 40% for that compound.
A mixture of HbS/A was purified from blood obtained from homozygous sickle cell patients though the Hemoglobinopathy Center at Children's Hospital Oakland Research Institute (CHORI) with Institutional Review Board approval. HbS/A (at a final concentration of 3 μM) was incubated for 1 hr at 37° C. in presence or absence of compounds in […] potassium phosphate buffer, pH=7.4 and 30 μM 2, 3 diphosphoglycerate (DPG) in 96 well plates in a final volume of 160 μl. Compounds were added at different concentrations (3 μM to 100 μM final concentrations). Plates were covered with a Mylar film. After incubation was completed the Mylar cover was removed and the plates were placed in a Spectrostar Nano plate reader previously heated at 37° C. Five minutes later, N2 (flow rate=20 L/min) was flowed through the spectrophotometer. Spectroscopic measurements (300 nm to 700 nm) were taken every 5 min for 2 hours. Data analysis was performed by using linear regression from the data retrieved for all wavelengths.
Results: Table 3 below lists the delta R values where “+” indicates a delta R of between 0 and 30, “++” indicates a delta R of between 30 and 50, and “+++” indicates a delta R of 50 or greater.

[7] = Pharmacokinetics of compound 12 following oral administration of compound 53 formulation, rats; conditions: following oral administration 10 mg/kg
[8] = overall exposure, read-out: Blood/plasma (Ratio of exposure AUCINF)

`CC(C)n1nccc1-c1ncccc1COc1cccc(O)c1C=O` [Compound 12, 2-hydroxy-6-[[2-(2-propan-2-ylpyrazol-3-yl)pyridin-3-yl]methoxy]benzaldehyde] showed an AUC(0-inf) ([1]; male, Sprague-Dawley, rat, blood, oral suspension 50 mg/kg) of 7340 µg·h/mL, a half-life ([1]; male, Sprague-Dawley, rat, blood, oral suspension 50 mg/kg or 100 mg/kg, read-out: mean terminal half-life) of 16 to 19 h and an AUC(0-inf) ([1]; male, Sprague-Dawley, rat, blood, oral suspension 100 mg/kg) of 9460 µg·h/mL. The “time to maximum blood concentration” value ([1]; oral suspension 50 mg/kg or 100 mg/kg) was at most 6 h, the maximum concentration ([1]; oral suspension 50 mg/kg, blood) was 281 μg/mL and 903 μM and the maximum concentration ([1]; oral suspension 100 mg/kg, blood) was 327 μg/mL and 1050 μM. For the same molecule, the “Polymerization (75 μM)/(% DT), class” value [2] was “†† (†† denotes activity >80% but ≦120%)”, the “Polymerization (75 μM)/(% DT)” value [2] was 108.56% and the “binding to hemoglobin versus human serum albumin” value [3] was “preferentially binding to hemoglobin”. For the same molecule, the “red blood cell/plasma ratio at the peak concentration” value ([4]; ratio to 1 into erythrocytes) was 70, the “Reverse Hemox (1 mM)/(delta p50%), class” value [5] was “+++ (“+++” indicates a delta p50% of 50 or greater)” and the “Reverse Hemox (1 mM)/(delta p50%)” value [5] was 79.83%. For the same molecule, the “R-T (9 μM)/(delta R), class” value [6] was “+++ (“+++” indicates a delta R of 50 or greater)”, the “R-T (9 μM)/(delta R)” value [6] was 65.45 and the “R-T (10 μM)/(delta R), class” value [6] was “+++ (“+++” indicates a delta R of 50 or greater)”. The “R-T (10 μM)/(delta R)” value [6] was 62.75.
With `COc1cc(C=O)c(OCc2cccnc2-c2ccnn2CC(F)F)cn1` [Compound 22, 5-[[2-[2-(2,2-difluoroethyl)pyrazol-3-yl]pyridin-3-yl]methoxy]-2-methoxypyridine-4-carbaldehyde] the “Polymerization (75 μM)/(% DT), class” value [2] was “†† (†† denotes activity >80% but ≦120%)”, the “Polymerization (75 μM)/(% DT)” value [2] was 90.22% and the blood plasma ratio [4, 8] was 5. For the same molecule, the “Reverse Hemox (1 mM)/(delta p50%), class” value [5] was “+++ (“+++” indicates a delta p50% of 50 or greater)”, the “Reverse Hemox (1 mM)/(delta p50%)” value [5] was 68.69% and the “R-T (9 μM)/(delta R), class” value [6] was “++ (“++” indicates a delta R of between 30 and 50)”. For the same molecule, the “R-T (9 μM)/(delta R)” value [6] was 31.02, the “R-T (10 μM)/(delta R), class” value [6] was “++ (“++” indicates a delta R of between 30 and 50)” and the “R-T (10 μM)/(delta R)” value [6] was 36.25.
In the case of `COc1cc(C=O)c(OCc2cccnc2-c2ccccc2C)cn1` [Compound 23, 2-methoxy-5-[[2-(2-methylphenyl)pyridin-3-yl]methoxy]pyridine-4-carbaldehyde], the “Polymerization (75 μM)/(% DT), class” value [2] is reported as “†† (†† denotes activity >80% but ≦120%)”, the “Polymerization (75 μM)/(% DT)” value [2] is reported as 98.19% and the blood plasma ratio ([4]; at Cmax, read-out: Blood/plasma (Ratio of peak concentration)) is reported as 3. For the same molecule, the blood plasma ratio [4, 8] was 1, the “Reverse Hemox (1 mM)/(delta p50%), class” value [5] was “+++ (“+++” indicates a delta p50% of 50 or greater)” and the “Reverse Hemox (1 mM)/(delta p50%)” value [5] was 72.45%. For the same molecule, the “R-T (9 μM)/(delta R), class” value [6] was “++ (“++” indicates a delta R of between 30 and 50)”, the “R-T (9 μM)/(delta R)” value [6] was 37.15 and the “R-T (10 μM)/(delta R), class” value [6] was “+++ (“+++” indicates a delta R of 50 or greater)”. The “R-T (10 μM)/(delta R)” value [6] was 51.55.
In the case of `CC(C)n1nccc1-c1ncccc1COc1cccc(OP(=O)(O)O)c1C=O` [Compound 53, 2-formyl-3-((2-(1-isopropyl-1H-pyrazol-5-yl)pyridin-3-yl)methoxy)phenyl dihydrogen phosphate], the “in vivo conversion of prodrug” value [7] is reported as “converted to compound 12”.
